Data published in ChEMBL document CHEMBL1201862, “PubChem BioAssay data set” (2004).
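Following 48 hours of exposure in 96-well plates, responses at five concentrations were used to interpolate endpoints linearly. GI50 marks 50% less growth.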 Active and inactive are the calls of the source. Rule as the data show it: active = GI50 up to about 1.1 µM and inactive = higher.

Tests used:
Experiment in all cases: NCI tumour cell line growth inhibition, 48 h
HOP-62 = tested on: HOP-62
HCT-15 = tested on: HCT-15
CAKI-1 = tested on: CAKI-1
HOP-92 = tested on: HOP-92
PC-3 = tested on: PC-3
SF-268 = tested on: SF-268
HL-60 = tested on: HL-60
K562 = tested on: K562
UACC-257 = tested on: UACC-257
UACC-62 = tested on: UACC-62
EKVX = tested on: EKVX
BT-549 = tested on: BT-549
SF-295 = tested on: SF-295
NCI-H23 = tested on: NCI-H23
UO-31 = tested on: UO-31
Hs-578T = tested on: Hs-578T
A498 = tested on: A498
786-0 = tested on: 786-0
OVCAR-4 = tested on: OVCAR-4

Structure (SMILES)	GI50 (HOP-62)	GI50 (HCT-15) [µM]	GI50 (CAKI-1)	GI50 (HOP-92)	GI50 (PC-3)	GI50 (SF-268)	GI50 (HL-60)	GI50 (K562)	GI50 (UACC-257)	GI50 (UACC-62)	GI50 (EKVX)	GI50 (BT-549)	GI50 (SF-295)	GI50 (NCI-H23)	GI50 (UO-31)	GI50 (Hs-578T)	GI50 (A498)	GI50 (786-0)	GI50 (OVCAR-4)
CCC(C)NC1=NCC(C)S1 (centres undefined)	> 100 µM (inactive)	> 100	> 100 µM (inactive)	> 100 µM (inactive)	> 100 µM (inactive)	> 100 µM (inactive)	> 100 µM (inactive)	> 100 µM (inactive)	> 100 µM (inactive)	> 100 µM (inactive)	> 100 µM (inactive)	> 100 µM (inactive)	> 100 µM (inactive)	> 100 µM (inactive)	> 100 µM (inactive)	> 100 µM (inactive)	> 100 µM (inactive)		
O=C1Oc2ccccc2N/C1=C/C(=O)c1ccc([N+](=O)[O-])cc1	> 100 µM (inactive)	> 100	> 100 µM (inactive)		80.7 µM (inactive)	> 100 µM (inactive)		> 100 µM (inactive)	> 100 µM (inactive)	45.8 µM (inactive)	> 100 µM (inactive)	98.2 µM (inactive)	> 100 µM (inactive)	> 100 µM (inactive)	> 100 µM (inactive)	23.2 µM (inactive)	> 100 µM (inactive)	> 100 µM (inactive)	> 100 µM (inactive)
CC(=O)C1(c2ccccc2)CCCN(C)CC1 (centres undefined)	> 100 µM (inactive)	> 100	> 100 µM (inactive)	> 100 µM (inactive)	> 100 µM (inactive)				> 100 µM (inactive)	> 100 µM (inactive)		> 100 µM (inactive)	> 100 µM (inactive)	> 100 µM (inactive)	> 100 µM (inactive)	> 100 µM (inactive)	> 100 µM (inactive)		> 100 µM (inactive)
CC1=NC(C)(C)[N+]([O-])=C1	> 10 µM (inactive)	> 10	> 10 µM (inactive)	> 10 µM (inactive)	> 10 µM (inactive)	> 10 µM (inactive)	> 10 µM (inactive)	> 10 µM (inactive)	> 10 µM (inactive)	> 10 µM (inactive)	> 10 µM (inactive)	> 10 µM (inactive)	> 10 µM (inactive)	> 10 µM (inactive)	> 10 µM (inactive)	> 10 µM (inactive)	> 10 µM (inactive)	> 10 µM (inactive)	
C=CCCCC1CCCNC1=S (centres undefined)	> 100 µM (inactive)	> 100	> 100 µM (inactive)	> 100 µM (inactive)	> 100 µM (inactive)	> 100 µM (inactive)		> 100 µM (inactive)	> 100 µM (inactive)	> 100 µM (inactive)	> 100 µM (inactive)	> 100 µM (inactive)	> 100 µM (inactive)	> 100 µM (inactive)	> 100 µM (inactive)	> 100 µM (inactive)	> 100 µM (inactive)	> 100 µM (inactive)	> 100 µM (inactive)
S=C1N(c2ccc(Cl)cc2)C2=C(/N=N/c3ccccc3)C(=Nc3ccccc3S2)N1c1ccccn1	19.4 µM (inactive)	10.2	13.8 µM (inactive)	12.6 µM (inactive)	13.2 µM (inactive)	3.59 µM (inactive)	12 µM (inactive)		15.8 µM (inactive)		12.2 µM (inactive)	11.1 µM (inactive)	15.7 µM (inactive)	15 µM (inactive)	10.1 µM (inactive)	16.4 µM (inactive)	< 0.01 µM (active)	14.9 µM (inactive)	
O=C(/C=C/c1ccc2c(c1)OCO2)Cc1nc2ccccc2[nH]c1=O	17.5 µM (inactive)	8.95	16.8 µM (inactive)	20.7 µM (inactive)	23.2 µM (inactive)	18.4 µM (inactive)	44.3 µM (inactive)	5.3 µM (inactive)	25.4 µM (inactive)	6.76 µM (inactive)	31.9 µM (inactive)	43.7 µM (inactive)	17.4 µM (inactive)	29.8 µM (inactive)	22.9 µM (inactive)	14.1 µM (inactive)	20.3 µM (inactive)	16.7 µM (inactive)	
COc1cc([C@@]23OC[C@@H]4[C@@H](OC[C@@H]42)c2cc4c(cc23)OCO4)cc(OC)c1OC	< 0.01 µM (active)	< 0.01	< 0.0157 µM (active)		< 0.01 µM (active)	0.0851 µM (active)	< 0.01 µM (active)	< 0.0208 µM (active)	< 0.01 µM (active)	< 0.01 µM (active)		< 0.0304 µM (active)	< 0.01 µM (active)	< 0.01 µM (active)	< 0.01 µM (active)	< 0.01 µM (active)	< 0.01 µM (active)	< 0.01 µM (active)	5.19 µM (inactive)
Cc1cc(O)c(C(C)C)cc1C(=S)Nc1ccc(Cl)cc1	18.5 µM (inactive)	10.7	14.6 µM (inactive)		11 µM (inactive)	7 µM (inactive)	7.05 µM (inactive)	4.35 µM (inactive)	10.9 µM (inactive)	10 µM (inactive)	12.7 µM (inactive)	16.5 µM (inactive)	14.2 µM (inactive)	5.93 µM (inactive)		9.1 µM (inactive)	15.1 µM (inactive)	14.1 µM (inactive)	7.19 µM (inactive)
C=C1[C@@](C)([C@@H]2CCCS2)[C@H]2C(C)=C[C@]1(C)n1c(=O)n(-c3ccccc3)c(=O)n12	> 100 µM (inactive)	> 100	> 100 µM (inactive)		> 100 µM (inactive)	> 100 µM (inactive)	> 100 µM (inactive)		> 100 µM (inactive)	> 100 µM (inactive)	> 100 µM (inactive)	> 100 µM (inactive)	> 100 µM (inactive)	> 100 µM (inactive)	> 100 µM (inactive)	> 100 µM (inactive)	> 100 µM (inactive)	> 100 µM (inactive)	> 100 µM (inactive)
Cc1sc2nc(-c3cccc([N+](=O)[O-])c3)c(/C=N/N=C(N)N)n2c1C	1.72 µM (inactive)	1.67	1.82 µM (inactive)	1.46 µM (inactive)	1.63 µM (inactive)	1.93 µM (inactive)	1.81 µM (inactive)	1.69 µM (inactive)	1.67 µM (inactive)	1.75 µM (inactive)	1.67 µM (inactive)	1.5 µM (inactive)	1.54 µM (inactive)	1.82 µM (inactive)	1.75 µM (inactive)	1.66 µM (inactive)	1.55 µM (inactive)	1.83 µM (inactive)	
N#CCCN(CCNc1ccccc1)C(=O)Nc1ccc(NC(=O)N(CCC#N)CCNc2ccccc2)cc1	> 47 µM (inactive)	> 60.3	> 100 µM (inactive)	> 45.9 µM (inactive)	> 93.1 µM (inactive)	> 47.4 µM (inactive)		> 100 µM (inactive)	> 100 µM (inactive)	> 100 µM (inactive)	> 100 µM (inactive)	> 38.5 µM (inactive)	> 74.6 µM (inactive)	> 68.4 µM (inactive)	> 100 µM (inactive)	> 41.9 µM (inactive)	> 100 µM (inactive)	> 68.9 µM (inactive)	24.7 µM (inactive)
Cc1ccc(Cc2nn(C)c(=O)n2-n2cccc2)cc1	> 100 µM (inactive)	> 100	> 100 µM (inactive)		> 100 µM (inactive)	> 100 µM (inactive)		> 100 µM (inactive)	56.8 µM (inactive)	> 100 µM (inactive)	> 100 µM (inactive)	> 100 µM (inactive)	> 100 µM (inactive)		> 100 µM (inactive)	> 100 µM (inactive)	> 100 µM (inactive)	> 100 µM (inactive)	> 100 µM (inactive)
CO/C(C)=N/CCC1=CCCCC1	> 100 µM (inactive)	> 100	> 100 µM (inactive)	> 100 µM (inactive)	> 100 µM (inactive)	> 100 µM (inactive)		93.1 µM (inactive)	> 100 µM (inactive)	> 100 µM (inactive)	> 100 µM (inactive)	> 100 µM (inactive)	55.5 µM (inactive)	> 100 µM (inactive)	> 100 µM (inactive)	> 100 µM (inactive)	> 100 µM (inactive)	> 100 µM (inactive)	> 100 µM (inactive)
COc1ccc2c(c1)/C(=C\c1c(Cl)[nH]c3ccccc13)C(=O)N2	5.75 µM (inactive)	5.14	3.86 µM (inactive)	1.84 µM (inactive)	4.9 µM (inactive)	4 µM (inactive)	3.18 µM (inactive)	3.62 µM (inactive)	6.14 µM (inactive)	5.16 µM (inactive)	3.3 µM (inactive)	3.3 µM (inactive)	1.97 µM (inactive)	11.4 µM (inactive)	6.78 µM (inactive)	2.51 µM (inactive)	8 µM (inactive)	4.49 µM (inactive)	
COC(=O)c1cc(OS(=O)(=O)C(F)(F)F)c(=O)n2c1CCCC2	> 100 µM (inactive)	> 100	> 100 µM (inactive)		> 100 µM (inactive)	> 100 µM (inactive)	> 100 µM (inactive)		> 100 µM (inactive)	86.3 µM (inactive)	> 100 µM (inactive)	> 100 µM (inactive)	> 100 µM (inactive)	> 100 µM (inactive)	> 100 µM (inactive)	> 100 µM (inactive)	> 100 µM (inactive)	> 100 µM (inactive)	> 100 µM (inactive)
